The text below walks through data of patent US5958938A, “Bis-pyrido[4,3-b]carbazole compounds” (Adir et Compagnie, priority 1997, dated 1999).

Structures are written as SMILES. Where two headings read alike, the source gives them in different places. Some results are limits rather than exact numbers.

The test system of one series is murine leukaemia, L 1210. Briefly: Cytotoxicity, Microculture Tetrazolium Assay, L 1210. The format is cell-based. Conditions: Mus musculus, L1210, 48 h, read-out: IC50 (cytotoxicity). An excerpt:
(§1) Three cell lines were used:
(§2) The cells are distributed on microplates and exposed to the cytotoxic compounds.

Another series deals with murine melanoma, B 16. Kind of series: Cytotoxicity, Microculture Tetrazolium Assay, B 16. The class given is cell-based. Conditions: for IC50: Mus musculus, read-out: IC50 (cytotoxicity).
Excerpt: as §1, §2

For series [1], the system named is human pulmonary carcinoma, A 549. Kind of series: Cytotoxicity, Microculture Tetrazolium Assay, A 549. The format is cell-based. Conditions: for IC50: Homo sapiens, A549, 96 h, read-out: IC50 (cytotoxicity).
Excerpt: as §1, §2

The subject of a further series is P 388 (murine leukaemia). Kind of series: In vivo anti-tumor activity, P 388 i.p. Details: species or system female BDF1 mice. Conditions: for Long-term survivors/total no. of mice: survivors at 60 days. How it is done:
Line P 388 (murine leukaemia) is supplied by The National Cancer Institute (Frederick, USA). The tumor cells (10^6 cells) are inoculated on day 0 into the peritoneal cavity of female BDF1 mice (Iffa-Credo, France) weighing from 18 to 20 g (groups of 6 or 7 animals).
The products are administered intravenously on day 1 or on days 1, 5 and 9 at the doses indicated.
The anti-tumor activity is expressed as % T/C: [formula]
The animals surviving at 60 days (long-term survivors) are indicated.

In the next series the test system is B 16 (murine melanoma). Briefly: In vivo anti-tumor activity, B 16 i.p. Details: species or system BDF1 mouse. Particulars: for % T/C / Long-term survivors/total no. of mice: D1-9, i.p.; for Long-term survivors/total no. of mice: survivors at 90 days. How it is done:
Line B 16 (murine melanoma) is supplied by The National Cancer Institute (Frederick, USA). The tumor is maintained by successive subcutaneous grafts of tumor fragments. On day 0, the tumors are broken up and homogenised in 0.9% NaCl (1 g, of tumor in 10 ml) and 0.5 ml of the homogenate is injected into the peritoneal cavity of each BDF1 mouse. The products are administered intraperitoneally at the doses indicated once a day for 9 days (D1-9).
The anti-tumor activity is expressed as % T/C, as defined above. The animals surviving at 90 days (long-term survivors) are indicated.

The mark [2] stands for this setting: B16, 96 h, B 16, 4 days incubation.
[3] abbreviates: D1,5,9, i.v., optimum dose 10 mg/kg.
The mark [4] stands for this setting: D1, i.v., optimum dose 10 mg/kg.
The mark [5] stands for this setting: D1,5,9, i.v., optimum dose 80 mg/kg.
Where [6] appears, read: D1, i.v., optimum dose 80 mg/kg.

One may read the IC50 as the concentration at which inhibition is half-maximal.

As to `Cc1c2c(C(=O)NCCN(C)C)nccc2c(C)c2c1c1cc(OC(=O)CCCCC(=O)Oc3ccc4c(c3)c3c(C)c5c(C(=O)NCCN(C)C)nccc5c(C)c3n4C)ccc1n2C` [Example 1, bis[1-(2-dimethylaminoethylcarbamoyl)-5,6, 11-trimethyl-6H-pyrido[4,3-b]carbazol-9-yl] ester of hexanedloic acid], the IC50 was 0.0735 µM with murine leukaemia, L 1210 (L 1210, 2 days incubation); 0.003 µM with murine melanoma, B 16 (setting [2]); 0.0176 µM in series [1] (A 549, 4 days incubation). Moreover, the “Cytotoxicity compared with reference products A and B” value is “more cytotoxic than reference products A and B” in the series on murine melanoma, B 16 (B 16, in words); “more cytotoxic than reference products A and B” in series [1] (A 549, in words). Besides, the “Cytotoxicity compared with line L 1210” value was “greater for lines B 16 and A 549 than for line L 1210” in the series on murine melanoma, B 16 (B 16 versus L 1210, in words); “greater for lines B 16 and A 549 than for line L 1210” in series [1] (A 549 versus L 1210, in words). The “% T/C” value is given as more than 582% in the series with P 388 (murine leukaemia) (setting [3]), 252% with P 388 (murine leukaemia) (setting [4]) and 429% in the series with B 16 (murine melanoma) (optimum dose 5 mg/kg). Moreover, the results for the “Long-term survivors/total no. of mice” value with P 388 (murine leukaemia) (setting [3]), in the series with P 388 (murine leukaemia) (setting [4]) and in the series on B 16 (murine melanoma) (optimum dose 5 mg/kg) were 3/6, 1/6 and 3/7, respectively. Also, the “Anti-tumor activity compared with reference product A” value in the series on P 388 (murine leukaemia) (leukaemia P 388 model, in words) is “more potent than, and as active as, reference product A”. The same compound showed a Long-term survivors with B 16 (murine melanoma) (melanoma B 16 model, at the optimum dose) of 3 long-term survivors. In the series with B 16 (murine melanoma) (melanoma B 16 model, in words), the Anti-tumor activity entry is “very active”.

Consider `Cc1c2ccnc(C(=O)NCCN(C)C)c2cc2c3cc(O)ccc3n(C)c12` [Reference A, 1-(N,N-dimethylaminoethylaminocarbamoyl)-5,6-diiethyl-9-hydroxy-6H-pyrido-[4,3-b]carbazole, reference compound], for which the 50% inhibitory concentration (IC50) turned out to be 0.0078 µM in the series with murine leukaemia, L 1210 (L 1210, 2 days incubation); 0.0051 µM with murine melanoma, B 16 (setting [2]); 0.0305 µM in series [1] (A 549, 4 days incubation). Besides, the “% T/C” value in the series on P 388 (murine leukaemia) (setting [5]) is reported as 320%; with P 388 (murine leukaemia) (setting [6]), 221%; in the series with B 16 (murine melanoma) (optimum dose 10 mg/kg) it was 190%. In addition, the “Long-term survivors/total no. of mice” value in the series with P 388 (murine leukaemia) (setting [5]) is 2/6; with P 388 (murine leukaemia) (setting [6]) it was 0/6; with B 16 (murine melanoma) (optimum dose 10 mg/kg), 0/7. Further, the Long-term survivors result in the series on B 16 (murine melanoma) (melanoma B 16 model, in words) is given as “none”.

`COc1cccc2c1C(=O)c1c(O)c3c(c(O)c1C2=O)C[C@@](O)(C(=O)CO)C[C@@H]3O[C@H]1C[C@H](N)[C@H](O)[C@H](C)O1` [Reference B, adriamycin, reference compound]: the IC50 came out at 0.0243 µM with murine leukaemia, L 1210; 0.0068 µM in the series with murine melanoma, B 16 (96 h); 0.0394 µM in series [1].
